These results are taken from patent US12600709B2, “Nonpeptide somatostatin type 5 receptor agonists and uses thereof” (Crinetics Pharmaceuticals, Inc., priority 2019, dated 2026).

Assay [1] addresses T1, human somatostatin receptor subtype 5 (Homo sapiens, UniProt P35346).
T1 construct: expressed in transfected cells
As to the kind of experiment: cAMP assay for SST5R (inhibition of cAMP in CHO-K1 cells). Type of assay: cell-based. As to conditions: for EC50: inhibition of cAMP via human SST5 receptor, read-out: SST5 potency; for Fold selectivity for SST5 vs SST2: class symbols, SST5 receptor over SST2 receptor. The essentials: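 CHO-K1 cells stably expressing human SSTR5 were treated 20 min at 37 °C with compounds plus 1.6 μM NKH477 in HBSS, 0.5 mM HEPES pH 7.4, 0.1% BSA, 0.2 mM IBMX. Lysate cAMP measured by HTRF against a standard curve; EC50 from cAMP-versus-concentration plots.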

In assay [2] the target is T2, human somatostatin receptor subtype 2 (Homo sapiens, UniProt P30874).
T2 construct: expressed in transfected cells
In words: cAMP assay for SST2R (inhibition of cAMP in CHO-K1 cells). It counts as cell-based. To be noted: Table B; inhibition of cAMP via human SST2 receptor; read-out: SST2 potency. The essentials:
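CHO-K1 cells stably expressing human SSTR2, plated 4 days prior, treated 20 min at 37° C with 1.6 μM NKH477 plus compound dilutions in HBSS/HEPES pH 7.4/0.1% BSA/0.2 mM IBMX. Lysate cAMP measured by HTRF against standard curve; EC50 from concentration-response.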

The structures appear in SMILES notation. Like-named read-outs stand apart in the source and are kept apart here.

T2 sequence (P30874 whole entry): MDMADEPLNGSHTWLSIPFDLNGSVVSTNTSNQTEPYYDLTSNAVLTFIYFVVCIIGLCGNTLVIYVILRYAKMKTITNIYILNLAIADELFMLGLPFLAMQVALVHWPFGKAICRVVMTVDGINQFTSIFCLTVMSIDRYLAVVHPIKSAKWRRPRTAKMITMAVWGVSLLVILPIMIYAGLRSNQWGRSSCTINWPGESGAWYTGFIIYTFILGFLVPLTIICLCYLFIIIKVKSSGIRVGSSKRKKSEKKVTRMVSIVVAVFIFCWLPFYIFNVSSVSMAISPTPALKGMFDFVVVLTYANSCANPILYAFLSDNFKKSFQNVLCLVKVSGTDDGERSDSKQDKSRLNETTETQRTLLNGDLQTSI
T1 sequence (P35346 whole entry): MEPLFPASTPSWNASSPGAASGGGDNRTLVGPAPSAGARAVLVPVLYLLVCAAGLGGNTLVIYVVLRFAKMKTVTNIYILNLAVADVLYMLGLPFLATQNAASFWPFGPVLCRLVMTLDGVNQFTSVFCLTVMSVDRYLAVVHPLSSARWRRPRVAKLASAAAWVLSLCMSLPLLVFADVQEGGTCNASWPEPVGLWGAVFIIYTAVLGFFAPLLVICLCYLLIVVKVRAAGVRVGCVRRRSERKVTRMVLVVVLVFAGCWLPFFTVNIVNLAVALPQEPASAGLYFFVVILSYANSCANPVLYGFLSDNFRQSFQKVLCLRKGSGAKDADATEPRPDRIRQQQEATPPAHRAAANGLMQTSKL

Turning to `Cc1cccc2[nH]c(-c3cncc(C(=O)N4CCCC4C(C)C)c3N3CC[C@](C)(N)C3)nc12` (stereo partly drawn) [2-36, (3S)-3-methyl-1-[3-(4-methyl-1H-1,3-benzodiazol-2-yl)-5-[2-(propan-2-yl)pyrrolidine-1-carbonyl]pyridin-4-yl]pyrrolidin-3-amine], the values for the EC50 in assay [1] (Table A), in assay [1] (Table B) and in assay [2] were less than 10 nM, less than 10 nM and 100 to 1000 nM, respectively. The “Fold selectivity for SST5 vs SST2” value in assay [1] (Table B) is “+++ (+++=>500)”.

Take `Cc1cccc2[nH]c(-c3cncc(C(=O)N4CC[C@H]5CCCC54)c3N3CC[C@](C)(N)C3)nc12` (stereo partly drawn) [2-37, (3S)-1-{3-[(3aR)-octahydrocyclopenta[b]pyrrole-1-carbonyl]-5-(4-methyl-1H-1,3-benzodiazol-2-yl)pyridin-4-yl}-3-methylpyrrolidin-3-amine]: the EC50 in assay [1] (Table A) was less than 10 nM; in assay [1] (Table B) it was less than 10 nM; in assay [2], 100 to 1000 nM. Also, in assay [1] (Table B), the “Fold selectivity for SST5 vs SST2” value is “++ (++=100 to 499)”.

Consider `Cc1cccc2[nH]c(-c3cncc(C(=O)NC4CCCCC4)c3N3CC[C@](C)(N)C3)nc12` [2-38, 4-[(3S)-3-amino-3-methylpyrrolidin-1-yl]-N-cyclohexyl-5-(4-methyl-1H-1,3-benzodiazol-2-yl)pyridine-3-carboxamide], for which the EC50 is less than 10 nM in assay [1] (Table A), less than 10 nM in assay [1] (Table B) and 100 to 1000 nM in assay [2]. Moreover, the “Fold selectivity for SST5 vs SST2” value in assay [1] (Table B) was “+ (+=10 to 99)”.

As to `Cc1cccc2[nH]c(-c3cncc(C(=O)N4CCC[C@H]4C(F)(F)F)c3N3CC[C@](C)(N)C3)nc12` [2-41, (3S)-3-methyl-1-[3-(4-methyl-1H-1,3-benzodiazol-2-yl)-5-[(2S)-2-(trifluoromethyl)pyrrolidine-1-carbonyl]pyridin-4-yl]pyrrolidin-3-amine], the results for the EC50 in assay [1] (Table A), in assay [1] (Table B) and in assay [2] were less than 10 nM, less than 10 nM and 100 to 1000 nM, respectively. For the same molecule, in assay [1] (Table B), the “Fold selectivity for SST5 vs SST2” value is reported as “+ (+=10 to 99)”.

Turning to `Cc1cccc2[nH]c(-c3cncc(C(=O)N4CCC(C5CC5)C4)c3N3CC[C@](C)(N)C3)nc12` (stereo partly drawn) [2-42, (3S)-1-[3-(3-cyclopropylpyrrolidine-1-carbonyl)-5-(4-methyl-1H-1,3-benzodiazol-2-yl)pyridin-4-yl]-3-methylpyrrolidin-3-amine], the values for the EC50 in assay [1] (Table A), in assay [1] (Table B) and in assay [2] were less than 10 nM, less than 10 nM and 100 to 1000 nM, respectively. In addition, the “Fold selectivity for SST5 vs SST2” value in assay [1] (Table B) was “++ (++=100 to 499)”.

On to `Cc1cccc2[nH]c(-c3cncc(C(=O)N4CCCC4C4CC4)c3N3CC[C@](C)(N)C3)nc12` (stereo partly drawn) [2-43, (3S)-1-[3-(2-cyclopropylpyrrolidine-1-carbonyl)-5-(4-methyl-1H-1,3-benzodiazol-2-yl)pyridin-4-yl]-3-methylpyrrolidin-3-amine], for which the EC50 in assay [1] (Table A) is less than 10 nM; in assay [1] (Table B) it was less than 10 nM; in assay [2], 10 to 100 nM. The “Fold selectivity for SST5 vs SST2” value in assay [1] (Table B) is reported as “+ (+=10 to 99)”.

For the molecule `C[C@]1(N)CCN(c2c(C(=O)N3C4CC5CC(C4)CC3C5)cncc2-c2nc3cccc(Cl)c3[nH]2)C1` [2-45, (3S)-1-(3-{2-azatricyclo[3.3.1.1^3,7]decane-2-carbonyl}-5-(7-chloro-1H-1,3-benzodiazol-2-yl)pyridin-4-yl)-3-methylpyrrolidin-3-amine], the EC50 is less than 10 nM in assay [1] (Table A), less than 10 nM in assay [1] (Table B) and 100 to 1000 nM in assay [2]. Besides, in assay [1] (Table B), the “Fold selectivity for SST5 vs SST2” value is “++ (++=100 to 499)”.

As to `C[C@]1(N)CCN(c2c(C(=O)NC3CCCCC3)ccnc2-c2cc(F)cc(F)c2)C1` [3-2, 3-[(3S)-3-amino-3-methylpyrrolidin-1-yl]-N-cyclohexyl-2-(3,5-difluorophenyl)pyridine-4-carboxamide], the values for the EC50 in assay [1] (Table A), in assay [1] (Table B) and in assay [2] were less than 10 nM, less than 10 nM and greater than 1000 nM, respectively. In assay [1] (Table B), the “Fold selectivity for SST5 vs SST2” value was “+++ (+++=>500)”.
